Results taken from PubChem BioAssay (NCI).
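Five compound concentrations were applied to cells in 96-well plates for 48 hours; endpoints were derived by simple linear interpolation of the resulting dose-response curve. TGI denotes the concentration required for complete inhibition of growth.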

Legend:
Assay in all cases: DTP human tumour cell line panel, 48 h
[1] = test system: MCF7 breast
[2] = test system: SNB-75 CNS
[3] = test system: NCI/ADR-RES ovarian
[4] = test system: ACHN renal
[5] = test system: U251 CNS
[6] = test system: RXF 393 renal
[7] = test system: SN12C renal
[8] = test system: SK-MEL-2 melanoma
[9] = test system: UACC-257 melanoma
[10] = test system: EKVX NSCLC
[11] = test system: 786-0 renal
[12] = test system: MOLT-4 leukemia
[13] = test system: BT-549 breast
[14] = test system: UACC-62 melanoma
[15] = test system: HT29 colon
[16] = test system: MALME-3M melanoma
[17] = test system: HCC-2998 colon
[18] = test system: TK-10 renal
[19] = test system: OVCAR-5 ovarian
[20] = test system: SW-620 colon
[21] = test system: COLO 205 colon
[22] = test system: OVCAR-4 ovarian
[23] = test system: PC-3 prostate
[24] = test system: UO-31 renal
[25] = test system: KM12 colon
[26] = test system: SF-295 CNS
[27] = test system: CAKI-1 renal
[28] = test system: OVCAR-8 ovarian
[29] = test system: DU-145 prostate
[30] = test system: MDA-MB-435
[31] = test system: SR leukemia
[32] = test system: SF-268 CNS
[33] = test system: SNB-19 CNS
[34] = test system: LOX IMVI melanoma
[35] = test system: A498 renal
[36] = test system: MDA-MB-231 breast
[37] = test system: HOP-62 NSCLC
[38] = test system: NCI-H460 lung
[39] = test system: NCI-H226 lung
[40] = test system: HS 578T breast
[41] = test system: HCT-15 colon
[42] = test system: IGROV1 ovarian
[43] = test system: K-562 leukemia
[44] = test system: SK-MEL-28 melanoma
[45] = test system: HCT-116 colon
[46] = test system: MDA-N
[47] = test system: SK-MEL-5 melanoma
[48] = test system: RPMI-8226 leukemia
[49] = test system: NCI-H23 lung
[50] = test system: HL-60(TB) leukemia
[51] = test system: NCI-H522 lung
[52] = test system: T-47D breast
[53] = test system: OVCAR-3 ovarian
[54] = test system: SF-539 CNS
[55] = test system: M14 melanoma
[56] = test system: CCRF-CEM leukemia
[57] = test system: A549 NSCLC
[58] = test system: SK-OV-3 ovarian

**Q.** What does the source list for CC(=O)OCC1OC(Nc2ccc3nc(C)n(-c4ccccc4)c(=O)c3c2)C(OC(C)=O)C(OC(C)=O)C1OC(C)=O (centres undefined)?
**A.** TGI [1]: > 50 µM; TGI [2]: > 50 µM; TGI [3]: > 50 µM; TGI [4]: > 50 µM; TGI [5]: > 50 µM; TGI [6]: > 50 µM; TGI [7]: > 50 µM; TGI [8]: > 50 µM; TGI [9]: > 50 µM; TGI [10]: > 50 µM; TGI [11]: > 50 µM; TGI [12]: > 50 µM; TGI [13]: > 50 µM; TGI [14]: > 50 µM; TGI [15]: > 50 µM; TGI [16]: > 50 µM; TGI [17]: > 50 µM; TGI [18]: > 50 µM; TGI [19]: > 50 µM; TGI [20]: > 50 µM; TGI [21]: > 50 µM; TGI [22]: > 50 µM; TGI [23]: > 50 µM; TGI [24]: > 50 µM; TGI [25]: > 50 µM; TGI [26]: > 50 µM; TGI [27]: > 50 µM; TGI [28]: > 50 µM; TGI [29]: > 50 µM; TGI [30]: > 50 µM; TGI [31]: > 50 µM; TGI [32]: > 50 µM; TGI [33]: > 50 µM; TGI [34]: > 50 µM; TGI [35]: > 50 µM; TGI [36]: > 50 µM; TGI [37]: > 50 µM; TGI [38]: > 50 µM; TGI [39]: > 50 µM; TGI [40]: > 50 µM; TGI [41]: > 50 µM; TGI [42]: > 50 µM; TGI [43]: > 50 µM; TGI [44]: > 50 µM; TGI [45]: > 50 µM; TGI [46]: > 50 µM; TGI [47]: > 50 µM; TGI [48]: 20.4 µM; TGI [49]: > 50 µM; TGI [50]: > 50 µM; TGI [51]: > 50 µM; TGI [52]: > 50 µM; TGI [53]: > 50 µM

**Q.** What does the source list for CCCCNC(=O)c1cc(S(=O)(=O)n2cc[nH]c2=O)c(SC)cc1Cl?
**A.** TGI [54]: > 100 µM; TGI [1]: > 100 µM; TGI [3]: > 100 µM; TGI [4]: > 100 µM; TGI [5]: > 100 µM; TGI [6]: > 100 µM; TGI [7]: > 100 µM; TGI [8]: > 100 µM; TGI [9]: > 100 µM; TGI [10]: > 100 µM; TGI [11]: > 100 µM; TGI [12]: > 100 µM; TGI [13]: > 100 µM; TGI [55]: > 100 µM; TGI [14]: > 100 µM; TGI [15]: > 100 µM; TGI [16]: > 100 µM; TGI [17]: > 100 µM; TGI [18]: > 100 µM; TGI [56]: > 100 µM; TGI [57]: > 100 µM; TGI [19]: > 100 µM; TGI [20]: > 100 µM; TGI [21]: > 100 µM; TGI [22]: > 100 µM; TGI [23]: > 100 µM; TGI [24]: > 100 µM; TGI [25]: > 100 µM; TGI [26]: > 100 µM; TGI [27]: > 100 µM; TGI [28]: > 100 µM; TGI [29]: > 100 µM; TGI [30]: > 100 µM; TGI [31]: > 100 µM; TGI [58]: > 100 µM; TGI [33]: > 100 µM; TGI [34]: > 100 µM; TGI [35]: 97 µM; TGI [36]: > 100 µM; TGI [37]: > 100 µM; TGI [38]: > 100 µM; TGI [40]: > 100 µM; TGI [41]: > 100 µM; TGI [42]: > 100 µM; TGI [43]: > 100 µM; TGI [44]: > 100 µM; TGI [45]: > 100 µM; TGI [46]: > 100 µM; TGI [47]: > 100 µM; TGI [48]: > 100 µM; TGI [49]: > 100 µM; TGI [50]: > 100 µM; TGI [51]: > 100 µM; TGI [52]: > 100 µM; TGI [53]: > 100 µM

**Q.** What does the source list for O=C1OC2C=CCC1C2 (centres undefined)?
**A.** TGI [54]: > 100 µM; TGI [1]: > 100 µM; TGI [2]: > 100 µM; TGI [3]: > 100 µM; TGI [4]: > 100 µM; TGI [5]: > 100 µM; TGI [7]: > 100 µM; TGI [8]: > 100 µM; TGI [9]: > 100 µM; TGI [10]: > 100 µM; TGI [11]: > 100 µM; TGI [12]: > 100 µM; TGI [13]: > 100 µM; TGI [55]: > 100 µM; TGI [14]: > 100 µM; TGI [15]: > 100 µM; TGI [16]: > 100 µM; TGI [17]: > 100 µM; TGI [18]: > 100 µM; TGI [56]: > 100 µM; TGI [57]: > 100 µM; TGI [19]: > 100 µM; TGI [20]: > 100 µM; TGI [21]: > 100 µM; TGI [23]: > 100 µM; TGI [24]: > 100 µM; TGI [25]: > 100 µM; TGI [26]: > 100 µM; TGI [27]: > 100 µM; TGI [28]: > 100 µM; TGI [29]: > 100 µM; TGI [30]: > 100 µM; TGI [31]: > 100 µM; TGI [32]: > 100 µM; TGI [58]: > 100 µM; TGI [33]: > 100 µM; TGI [34]: > 100 µM; TGI [35]: > 100 µM; TGI [36]: > 100 µM; TGI [37]: > 100 µM; TGI [38]: > 100 µM; TGI [39]: > 100 µM; TGI [40]: > 100 µM; TGI [41]: > 100 µM; TGI [42]: > 100 µM; TGI [43]: > 100 µM; TGI [44]: > 100 µM; TGI [45]: > 100 µM; TGI [46]: > 100 µM; TGI [47]: > 100 µM; TGI [48]: > 100 µM; TGI [49]: > 100 µM; TGI [50]: > 100 µM; TGI [51]: > 100 µM; TGI [52]: > 100 µM; TGI [53]: > 100 µM
